Where “and” joins values, the source holds several entries; their conditions need not be identical. Identical values can stand only once. Inconclusive results and toxic doses are left out. Rule as the data show it: active = T/C of 150% or more; inactive = T/C below 125%. Numbered stars: 1 amine (or outer) side, 2 acyl side, 3 side chain; on linkers, the order of the positions; unused ones are H or OH. Bridge positions count the residues as written; N and C are the ends. Square brackets hold non-standard residues; d marks the D form. Peptide text beside a SMILES is read from it. I, II: the chains in the order shown. Actinocin(9to1) = Cc1c2oc3c(C)ccc(C(=O)[*:1])c3nc-2c(C(=O)[*:2])c(N)c1=O; NMeV = CN[CH](C(=O)O)C(C)C; Sar = CNCC(=O)O
Tested on: L1210 leukemia ip in BDF1 mice, survival T/C
Assay: NCI In Vivo Anticancer Drug Screen. Data for tumor model L1210 Leukemia (intraperitoneal) in B6D2F1 (BDF1) mice
Conditions: endpoint: mean survival time, higher = longer survival
Procedure, shortened: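 Tumor was transplanted into mice, which were then dosed with test compound or vehicle alone. Survival was recorded for each group, and the treated figure was expressed relative to the control figure.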

[1] = dose: 100.0 mg/kg/injection, schedule: Q01DX009 (ip), vehicle: Klucel (hydroxypropylcellulose) (HPC)
[2] = dose: 100.0 mg/kg/injection, schedule: Q04DX002 (ip), vehicle: Klucel (hydroxypropylcellulose) (HPC)
[3] = dose: 200.0 mg/kg/injection, schedule: Q01DX009 (ip), vehicle: Klucel (hydroxypropylcellulose) (HPC)
[4] = dose: 200.0 mg/kg/injection, schedule: Q04DX002 (ip), vehicle: Klucel (hydroxypropylcellulose) (HPC)
[5] = dose: 400.0 mg/kg/injection, schedule: Q01DX009 (ip), vehicle: Klucel (hydroxypropylcellulose) (HPC)
[6] = dose: 400.0 mg/kg/injection, schedule: Q04DX002 (ip), vehicle: Klucel (hydroxypropylcellulose) (HPC)
[7] = dose: 100.0 mg/kg/injection, schedule: Q04DX003 (ip), vehicle: Klucel (hydroxypropylcellulose) (HPC)
[8] = dose: 100.0 mg/kg/injection, schedule: Q01DX009 (ip), vehicle: saline with Tween-80
[9] = dose: 100.0 mg/kg/injection, schedule: Q04DX003 (ip), vehicle: saline with Tween-80
[10] = dose: 200.0 mg/kg/injection, schedule: Q01DX009 (ip), vehicle: saline with Tween-80
[11] = dose: 200.0 mg/kg/injection, schedule: Q04DX003 (ip), vehicle: saline with Tween-80
[12] = dose: 400.0 mg/kg/injection, schedule: Q01DX009 (ip), vehicle: saline with Tween-80
[13] = dose: 400.0 mg/kg/injection, schedule: Q04DX003 (ip), vehicle: saline with Tween-80
[14] = dose: 50.0 mg/kg/injection, schedule: Q01DX009 (ip), vehicle: saline with Tween-80
[15] = dose: 12.5 mg/kg/injection, schedule: Q04DX003 (ip), vehicle: Klucel (hydroxypropylcellulose) (HPC)
[16] = dose: 25.0 mg/kg/injection, schedule: Q01DX009 (ip), vehicle: Klucel (hydroxypropylcellulose) (HPC)
[17] = dose: 25.0 mg/kg/injection, schedule: Q04DX003 (ip), vehicle: Klucel (hydroxypropylcellulose) (HPC)
[18] = dose: 50.0 mg/kg/injection, schedule: Q01DX009 (ip), vehicle: Klucel (hydroxypropylcellulose) (HPC)
[19] = dose: 50.0 mg/kg/injection, schedule: Q04DX003 (ip), vehicle: Klucel (hydroxypropylcellulose) (HPC)

Measured: T/C

Cc1c2oc3c(C)ccc(C(=O)NC4C(=O)NC(C(C)C)C(=O)N(C)CC(=O)N(C)CC(=O)N(C)C(C(C)C)C(=O)OC4C)c3nc-2c(C(=O)NC2C(=O)NC(C(C)C)C(=O)N(C)CC(=O)N(C)CC(=O)N(C)C(C(C)C)C(=O)OC2C)c(N)c1=O (stereo not given) (I: TV[Sar][Sar][NMeV] / II: TV[Sar][Sar][NMeV]; ester I:1-I:C, II:1-II:C; linker I:N-II:N via Actinocin(9to1); configuration not given here)
inactive: dose: 0.05 mg/kg/injection, schedule: Q01DX009 (ip), vehicle: other 94 % of control | dose: 0.1 mg/kg/injection, schedule: Q01DX009 (ip), vehicle: other 108 % of control | dose: 0.2 mg/kg/injection, schedule: Q01DX009 (ip), vehicle: other 106 % of control | dose: 0.4 mg/kg/injection, schedule: Q01DX009 (ip), vehicle: other 115 % of control | dose: 0.5 mg/kg/injection, schedule: Q01DX001 (ip), vehicle: saline + alcohol 105 % of control | dose: 0.8 mg/kg/injection, schedule: Q01DX009 (ip), vehicle: other 120 % of control | dose: 1.0 mg/kg/injection, schedule: Q01DX001 (ip), vehicle: saline + alcohol 112 % of control | dose: 1.6 mg/kg/injection, schedule: Q01DX009 (ip), vehicle: other 92 % of control | dose: 2.0 mg/kg/injection, schedule: Q01DX001 (ip), vehicle: saline + alcohol 116 % of control | dose: 4.0 mg/kg/injection, schedule: Q01DX001 (ip), vehicle: saline + alcohol 113 % of control | dose: 62.5 micrograms/kg/injection, schedule: Q01DX009 (ip), vehicle: saline + alcohol 105 % of control | dose: 125.0 micrograms/kg/injection, schedule: Q01DX009 (ip), vehicle: saline + alcohol 112 % of control | dose: 188.0 micrograms/kg/injection, schedule: Q04DX003 (ip), vehicle: saline + alcohol 107 % of control | dose: 250.0 micrograms/kg/injection, schedule: Q01DX009 (ip), vehicle: saline + alcohol 119 % of control | dose: 375.0 micrograms/kg/injection, schedule: Q04DX003 (ip), vehicle: saline + alcohol 106 % of control | dose: 750.0 micrograms/kg/injection, schedule: Q04DX003 (ip), vehicle: saline + alcohol 112 % of control | dose: 1500.0 micrograms/kg/injection, schedule: Q04DX003 (ip), vehicle: saline + alcohol 119 % of control

COc1cc(C(=O)NC2CC(C)CC(C)(C)C2)cc(OC)c1OC (stereo not given)
inactive: [1] 91 % of control | [2] 92 % of control | [3] 91 % of control | [4] 98 % of control | [5] 91 % of control | [6] 103 % of control

CC(CN1CCN(CCOCCO)CC1)CN1c2ccccc2Sc2ccc(Cl)cc21 (stereo not given)
inactive: dose: 0.09 mg/kg/injection, schedule: Q01DX009 (ip), vehicle: saline 114 % of control | dose: 0.39 mg/kg/injection, schedule: Q01DX009 (ip), vehicle: saline 94 % of control | dose: 0.78 mg/kg/injection, schedule: Q01DX009 (ip), vehicle: saline 96 % of control | dose: 0.78 mg/kg/injection, schedule: Q04DX003 (ip), vehicle: saline 108 % of control | dose: 1.56 mg/kg/injection, schedule: Q01DX009 (ip), vehicle: saline 114 % of control | dose: 1.56 mg/kg/injection, schedule: Q04DX003 (ip), vehicle: saline 110 % of control | dose: 3.12 mg/kg/injection, schedule: Q04DX003 (ip), vehicle: saline 106 % of control | dose: 6.25 mg/kg/injection, schedule: Q04DX003 (ip), vehicle: saline 105 % of control | dose: 12.5 mg/kg/injection, schedule: Q04DX003 (ip), vehicle: saline 111 % of control

O=C(NC1CCC(CC2CCCCC2)CC1)C(Cl)Cl (stereo not given)
inactive: [1] 91 % of control | [7] 93 % of control | [3] 93 % of control | dose: 200.0 mg/kg/injection, schedule: Q04DX003 (ip), vehicle: Klucel (hydroxypropylcellulose) (HPC) 88 % of control | [5] 91 % of control | dose: 400.0 mg/kg/injection, schedule: Q04DX003 (ip), vehicle: Klucel (hydroxypropylcellulose) (HPC) 109 % of control

O=CNc1nc(Cl)c2ncn(C3OC(COCc4ccccc4)C(OCc4ccccc4)C3OCc3ccccc3)c2n1 (stereo not given)
inactive: dose: 12.5 mg/kg/injection, schedule: Q01DX005 (ip), vehicle: saline 104 % of control | dose: 25.0 mg/kg/injection, schedule: Q01DX005 (ip), vehicle: saline 98 % of control | dose: 50.0 mg/kg/injection, schedule: Q01DX005 (ip), vehicle: saline 102 % of control | dose: 100.0 mg/kg/injection, schedule: Q01DX005 (ip), vehicle: saline 113 % of control | dose: 200.0 mg/kg/injection, schedule: Q01DX005 (ip), vehicle: saline 106 % of control

CN1c2ccccc2C(C)(C)C12C=Cc1ccccc1O2 (stereo not given)
inactive: dose: 25.0 mg/kg/injection, schedule: Q04DX002 (ip), vehicle: gum acacia 111 % of control | dose: 50.0 mg/kg/injection, schedule: Q04DX002 (ip), vehicle: gum acacia 103 % of control | dose: 100.0 mg/kg/injection, schedule: Q04DX002 (ip), vehicle: gum acacia 88 % of control | dose: 200.0 mg/kg/injection, schedule: Q04DX002 (ip), vehicle: gum acacia 94 % of control

COc1cc([N+](=O)[O-])c(C)cc1Nc1ccc(OC)c(OC)c1
inactive: [8] 105 % of control | [9] 98 % of control | [10] 96 % of control | [11] 93 % of control | [12] 96 % of control | [13] 92 % of control

O=C(O)C1=CC2(c3ccccc3)C(=O)C1(c1ccccc1)C1=C2c2cccc3cccc1c23 (stereo not given)
inactive: [14] 93 % of control | [8] 93 % of control | [10] 93 % of control

CCOC(=O)/C=C(\C)CO (tested in a mixture with another compound)
inactive: [14] 93 % of control | [8] 93 % of control | [10] 101 % of control

CC(=O)Nc1cccc2c(C)ccnc12
inactive: dose: 12.5 mg/kg/injection, schedule: Q01DX009 (ip), vehicle: Klucel (hydroxypropylcellulose) (HPC) 99 % of control | [15] 94 % of control | [16] 97 % of control | [17] 98 % of control | [18] 87 % of control | [19] 95 % of control

COC(=O)c1c[nH]c2ccc(Br)cc12
inactive: dose: 100.0 mg/kg/injection, schedule: Q04DX003 (ip), vehicle: saline 108 % of control | dose: 200.0 mg/kg/injection, schedule: Q04DX003 (ip), vehicle: saline 92 % of control | dose: 400.0 mg/kg/injection, schedule: Q04DX003 (ip), vehicle: saline 89 % of control

OC1CC2CCC1C2 (stereo not given)
inactive: [8] 94 % of control | [9] 106 % of control | [10] 105 % of control | [11] 91 % of control | [12] 95 % of control | [13] 88 % of control

CN(C)C(=S)SSSSC(=S)N(C)C
inactive: [2] 108 % of control | [4] 108 % of control | [6] 99 % of control and 90 % of control

COc1ccc(-c2cccc(-c3ccccc3)n2)cc1
inactive: [15] 91 % of control | [16] 106 % of control | [17] 98 % of control | [18] 100 % of control | [19] 98 % of control | [1] 89 % of control | [7] 96 % of control

N#[N+]c1ccc(Br)cc1-c1nc(N)c2cc(Br)ccc2n1
inactive: dose: 50.0 mg/kg/injection, schedule: Q01DX001 (ip), vehicle: Klucel (hydroxypropylcellulose) (HPC) 94 % of control | dose: 100.0 mg/kg/injection, schedule: Q01DX001 (ip), vehicle: Klucel (hydroxypropylcellulose) (HPC) 105 % of control | dose: 200.0 mg/kg/injection, schedule: Q01DX001 (ip), vehicle: Klucel (hydroxypropylcellulose) (HPC) 105 % of control

COc1ccc(NC(=O)c2cc3ccccc3cc2OC(=O)NC(C)(C)C)cc1
inactive: dose: 100.0 mg/kg/injection, schedule: Q04DX002 (ip), vehicle: saline 103 % of control | dose: 200.0 mg/kg/injection, schedule: Q04DX002 (ip), vehicle: saline 113 % of control | dose: 400.0 mg/kg/injection, schedule: Q04DX002 (ip), vehicle: saline 97 % of control

Reference: PubChem BioAssay AID248 (DTP/NCI, 2004)
